Source: patent US6800674B2, “Anthraquinone compound and water-based ink-jet recording ink containing the compound” (Mitsui Chemicals, Inc., priority 2000, dated 2004)

Assay: Evaluation of emulsification (visual, in production of emulsion ink)
Type: physicochemical
Conditions: ink produced as in Example 1
Description: (§1) Glycerin and water were added to the dispersion (A) of colored resin fine particles to obtain aqueous ink having a solid content of 15% by weight. This aqueous ink was used, and filled in an ink cartridge for a piezo-type ink jet printer, and printing and image recording were conducted with the same printer. The test was conducted on the following items.
(A) Evaluation of Emulsification
The emulsification condition in the production of emulsion ink was visually observed, and evaluated.

Row | Compound | evaluation of emulsification (in words)
1 | O=C1c2ccccc2C(=O)c2c1ccc(O)c2O [Comparative Example 1, reference compound] | poor emulsification

Assay: Evaluation of water resistance (OD1 after/before dipping in water)
Type: physicochemical
Conditions: aqueous ink, ink production process Example 1; OD1 after dipping in water and air-drying
Description: as §1
(D) Evaluation of Water Resistance
With respect to a printed portion of a plain paper having a recorded image thereon for test, printing density (OD value) was measured with a reflection densitometer before dipping in water and after dipping in water and air-drying. Water resistance was evaluated upon comparing OD1.
OD1=(OD value after dipping in water and air-drying)/(OD value before dipping in water)×100[%]

Row | Compound | D (Evaluation of water resistance)
2 | CCN(CC)c1cccc(Oc2cc(O)c3c(c2N)C(=O)c2ccc(OC)cc2C3=O)c1 [compound 16] | ⊚ (OD value is 80 to less than 90%.)
3 | CN(C)c1cccc(Oc2cc(O)c3c(c2N)C(=O)c2ccccc2C3=O)c1 [compound 5] | ⊚⊚ (OD value is 90 to 100%.)
4 | COc1cc(N)c2c(c1N)C(=O)c1ccccc1C2=O [Comparative Example 2, reference compound] | Δ (OD value is 50 to less than 70%.)
5 | CCN(CC)c1cccc(Oc2cc(O)c3c(c2N)C(=O)c2cc(C)ccc2C3=O)c1 [compound 13] | ⊚⊚ (OD value is 90 to 100%.)
6 | CCCCN(CCCC)c1cccc(Oc2cc(O)c3c(c2N)C(=O)c2ccc(CC)cc2C3=O)c1 [compound 14] | ⊚⊚ (OD value is 90 to 100%.)
7 | CCCC(C)N(c1cccc(Oc2cc(O)c3c(c2N)C(=O)c2ccccc2C3=O)c1)C(C)CCC (centres unmarked) [compound 11] | ⊚⊚ (OD value is 90 to 100%.)
8 | CCN(CC)c1cccc(Oc2cc(O)c3c(c2N)C(=O)c2ccccc2C3=O)c1 [compound 7] | ⊚⊚ (OD value is 90 to 100%.)
9 | CCCCN(CCCC)c1cccc(Oc2cc(O)c3c(c2N)C(=O)c2ccccc2C3=O)c1 [compound 9] | ⊚⊚ (OD value is 90 to 100%.)
10 | CCc1ccc2c(c1)C(=O)c1c(O)cc(Oc3cccc(N(CC)CC)c3)c(N)c1C2=O [compound 15] | ⊚⊚ (OD value is 90 to 100%.)
11 | CCCCCCN(CCCCCC)c1cccc(Oc2cc(O)c3c(c2N)C(=O)c2cccc(C)c2C3=O)c1 [compound 18] | ⊚⊚ (OD value is 90 to 100%.)
12 | O=C1c2ccccc2C(=O)c2c1ccc(O)c2O [Comparative Example 1, reference compound] | X (OD value is less than 50%.)

Same assay, conditions: aqueous ink, ink production process Example 2; OD1 after dipping in water and air-drying

Row | Compound | D (Evaluation of water resistance)
13 | CCN(CC)c1cccc(Oc2cc(O)c3c(c2N)C(=O)c2ccc(OC)cc2C3=O)c1 [compound 16] | ⊚ (OD value is 80 to less than 90%.)
14 | CN(C)c1cccc(Oc2cc(O)c3c(c2N)C(=O)c2ccccc2C3=O)c1 [compound 5] | ⊚⊚ (OD value is 90 to 100%.)
15 | CCN(CC)c1cccc(Oc2cc(O)c3c(c2N)C(=O)c2cc(C)ccc2C3=O)c1 [compound 13] | ⊚⊚ (OD value is 90 to 100%.)
16 | CCCCN(CCCC)c1cccc(Oc2cc(O)c3c(c2N)C(=O)c2ccc(CC)cc2C3=O)c1 [compound 14] | ⊚⊚ (OD value is 90 to 100%.)
17 | CCCC(C)N(c1cccc(Oc2cc(O)c3c(c2N)C(=O)c2ccccc2C3=O)c1)C(C)CCC (centres unmarked) [compound 11] | ⊚⊚ (OD value is 90 to 100%.)
18 | CCN(CC)c1cccc(Oc2cc(O)c3c(c2N)C(=O)c2ccccc2C3=O)c1 [compound 7] | ⊚⊚ (OD value is 90 to 100%.)
19 | CCCCN(CCCC)c1cccc(Oc2cc(O)c3c(c2N)C(=O)c2ccccc2C3=O)c1 [compound 9] | ⊚⊚ (OD value is 90 to 100%.)
20 | CCc1ccc2c(c1)C(=O)c1c(O)cc(Oc3cccc(N(CC)CC)c3)c(N)c1C2=O [compound 15] | ⊚⊚ (OD value is 90 to 100%.)
21 | CCCCCCN(CCCCCC)c1cccc(Oc2cc(O)c3c(c2N)C(=O)c2cccc(C)c2C3=O)c1 [compound 18] | ⊚⊚ (OD value is 90 to 100%.)

Assay: Evaluation of light fastness (xenon fadeometer, OD2)
Type: physicochemical
Conditions: not given
Description: as §1
(E) Evaluation of Light Fastness
Printing density (OD value) was measured using a xenon fadeometer (manufactured by Suga Shikenki) before irradiation and after 100 hours of irradiation. Light fastness was evaluated upon comparing OD2.
OD2=(OD value after irradiation)/(OD value before irradiation)×100[%]

Row | Compound | light fastness (in words)
22 | COc1cc(N)c2c(c1N)C(=O)c1ccccc1C2=O [Comparative Example 2, reference compound] | extremely bad

Same assay, conditions: aqueous ink, ink production process Example 1; OD2 after 100 hours of irradiation

Row | Compound | E (Evaluation of light fastness)
23 | CCN(CC)c1cccc(Oc2cc(O)c3c(c2N)C(=O)c2ccc(OC)cc2C3=O)c1 [compound 16] | ⊚ (OD value is 80 to less than 90%.)
24 | CN(C)c1cccc(Oc2cc(O)c3c(c2N)C(=O)c2ccccc2C3=O)c1 [compound 5] | ⊚ (OD value is 80 to less than 90%.)
25 | COc1cc(N)c2c(c1N)C(=O)c1ccccc1C2=O [Comparative Example 2, reference compound] | X (OD value is less than 50%.)
26 | CCN(CC)c1cccc(Oc2cc(O)c3c(c2N)C(=O)c2cc(C)ccc2C3=O)c1 [compound 13] | ⊚⊚ (OD value is 90 to 100%.)
27 | CCCCN(CCCC)c1cccc(Oc2cc(O)c3c(c2N)C(=O)c2ccc(CC)cc2C3=O)c1 [compound 14] | ⊚⊚ (OD value is 90 to 100%.)
28 | CCCC(C)N(c1cccc(Oc2cc(O)c3c(c2N)C(=O)c2ccccc2C3=O)c1)C(C)CCC (centres unmarked) [compound 11] | ⊚⊚ (OD value is 90 to 100%.)
29 | CCN(CC)c1cccc(Oc2cc(O)c3c(c2N)C(=O)c2ccccc2C3=O)c1 [compound 7] | ⊚ (OD value is 80 to less than 90%.)
30 | CCCCN(CCCC)c1cccc(Oc2cc(O)c3c(c2N)C(=O)c2ccccc2C3=O)c1 [compound 9] | ⊚⊚ (OD value is 90 to 100%.)
31 | CCc1ccc2c(c1)C(=O)c1c(O)cc(Oc3cccc(N(CC)CC)c3)c(N)c1C2=O [compound 15] | ⊚ (OD value is 80 to less than 90%.)
32 | CCCCCCN(CCCCCC)c1cccc(Oc2cc(O)c3c(c2N)C(=O)c2cccc(C)c2C3=O)c1 [compound 18] | ⊚⊚ (OD value is 90 to 100%.)
33 | O=C1c2ccccc2C(=O)c2c1ccc(O)c2O [Comparative Example 1, reference compound] | X (OD value is less than 50%.)

Assay: Solvent solubility of the coloring matter
Type: physicochemical
Conditions: ink produced as in Example 1

Row | Compound | solubility of the coloring matter (in words)
34 | COc1cc(N)c2c(c1N)C(=O)c1ccccc1C2=O [Comparative Example 2, reference compound] | low
35 | O=C1c2ccccc2C(=O)c2c1ccc(O)c2O [Comparative Example 1, reference compound] | low

Same assay, conditions: toluene, room temperature

Row | Compound | solubility in toluene [%]
36 | CCCCN(CCCC)c1cccc(Oc2cc(O)c3c(c2N)C(=O)c2ccccc2C3=O)c1 [compound 9] | ≥ 40

Assay: Absorption in toluene solution
Type: physicochemical
Conditions: not given

Row | Compound | gram absorption coefficient (εg) | maximum absorption wavelength (λmax) [nm]
37 | CCCCN(CCCC)c1cccc(Oc2cc(O)c3c(c2N)C(=O)c2ccccc2C3=O)c1 [compound 9] | 30,200 ml/g·cm | 517

Assay: Evaluation of light fastness (xenon fadeometer, OD2)
Type: physicochemical
Conditions: aqueous ink, ink production process Example 2; OD2 after 100 hours of irradiation

Row | Compound | E (Evaluation of light fastness)
38 | CCN(CC)c1cccc(Oc2cc(O)c3c(c2N)C(=O)c2ccc(OC)cc2C3=O)c1 [compound 16] | ⊚ (OD value is 80 to less than 90%.)
39 | CN(C)c1cccc(Oc2cc(O)c3c(c2N)C(=O)c2ccccc2C3=O)c1 [compound 5] | ⊚ (OD value is 80 to less than 90%.)
40 | CCN(CC)c1cccc(Oc2cc(O)c3c(c2N)C(=O)c2cc(C)ccc2C3=O)c1 [compound 13] | ⊚⊚ (OD value is 90 to 100%.)
41 | CCCCN(CCCC)c1cccc(Oc2cc(O)c3c(c2N)C(=O)c2ccc(CC)cc2C3=O)c1 [compound 14] | ⊚⊚ (OD value is 90 to 100%.)
42 | CCCC(C)N(c1cccc(Oc2cc(O)c3c(c2N)C(=O)c2ccccc2C3=O)c1)C(C)CCC (centres unmarked) [compound 11] | ⊚⊚ (OD value is 90 to 100%.)
43 | CCN(CC)c1cccc(Oc2cc(O)c3c(c2N)C(=O)c2ccccc2C3=O)c1 [compound 7] | ⊚ (OD value is 80 to less than 90%.)
44 | CCCCN(CCCC)c1cccc(Oc2cc(O)c3c(c2N)C(=O)c2ccccc2C3=O)c1 [compound 9] | ⊚⊚ (OD value is 90 to 100%.)
45 | CCc1ccc2c(c1)C(=O)c1c(O)cc(Oc3cccc(N(CC)CC)c3)c(N)c1C2=O [compound 15] | ⊚ (OD value is 80 to less than 90%.)
46 | CCCCCCN(CCCCCC)c1cccc(Oc2cc(O)c3c(c2N)C(=O)c2cccc(C)c2C3=O)c1 [compound 18] | ⊚⊚ (OD value is 90 to 100%.)
